Test results from US11883526B2 (priority 2019, dated 2024).

Assays:
[1] = tested on: elderly subjects with TRD; settings: US patients aged ≥65 years
Protocol: Safety evaluation included reported adverse events, clinical laboratory tests, vital sign measurements, physical examinations, electrocardiograms and nasal examinations. Safety was assessed via treatment emergent AEs (TEAEs).

[2] = From the text: This example provides an LC-MS/MS method for the determination of ketamine and norketamine in sodium heparin human plasma using ketamine-d4 and norketamine-d4 as the respective internal standards (IS).
[3] = tested on: glutamate NMDA receptor; settings: in vitro; cited from earlier work
[4] = tested on: patients with treatment-resistant depression (TRD); test: CADSS (Example 7); set-up: species or system human; settings: in vivo
Protocol: Adverse events were monitored throughout the study. Other safety assessments (i.e., laboratory tests, vital signs, physical examination) were performed at pre-specified time points. Vital signs, the Clinician Administered Dissociative States Scale (CADSS; Bremner, “Measurement of dissociative states with the clinician-administered dissociative states scale (CADSS)”, J. Traumatic Stress, 1998, 11(1):125-136), and the 4-item positive symptom subscale from the Brief Psychiatric Rating Scale (BPRS; Overall, “The Brief Psychiatric Rating Scale. Psychological Reports”, 1962, 10:799-812) were assessed pre-dose, at 40 minutes, and 2 hours post-dose.

[5] = tested on: subjects with MDD at imminent risk for suicide; format: in vivo, human; settings: 84 mg
Protocol: Transient blood pressure increases peaked for the esketamine group at approximately 40 minutes post dose with the maximum mean increases (across all dosing days) in systolic BP being 8.7 in the placebo group and 16.7 in the esketamine 84 mg group. The maximum mean increases (across all dosing days) in diastolic BP were 7.6 in the placebo group and 11.9 in the esketamine 84 mg group. […] See, FIGS. 46 and 47.

[6] = tested on: patients with treatment-resistant depression (TRD); test: MADRS total score, response, remission (phase 2 dose-response study, Example 7); format: in vivo, human; settings: for MADRS total score, LS mean difference vs placebo (all dose groups): 28, 56, 84 mg; for Remitters, % / Responders, %: study period endpoint
Protocol: Efficacy was assessed with the Montgomery-Asberg Depression Rating Scale (MADRS; Montgomery, “A new depression scale designed to be sensitive to change”, Br. J. Psychiatry, 1979, 134:382-389; Williams, “Development and reliability of a structured interview guide for the Montgomery Asberg Depression Rating Scale (SIGMA)”, Br. J. Psychiatry, 2008, 192(1):52-58) on days 1 (pre-dose and 2 hour post-dose), 2, 8 (pre-dose), 9, and 15, using the structured interview guide (SIGMA). See, Williams 2008.
Efficacy data were analyzed in intent-to-treat (ITT) analysis sets for each period and phase. The ITT analysis sets included all participants who received at least 1 dose of study medication during that period or phase and had baseline and at least one post-baseline MADRS total score within that period or phase.
The primary efficacy endpoint—change from baseline (pre-dose, day 1 in each period) to endpoint (day 8 in each period) in MADRS total score—was analyzed using the analysis of covariance (ANCOVA) model. For Period 1, the model included treatment and country as factors, and baseline MADRS total score as covariate. For Period 2, the model included treatment and country as factors, Period 2 baseline QIDS-SR16 score (moderate or severe), and Period 2 baseline MADRS total score as a continuous covariate.
Given the consistency between Periods 1 and 2 results (Chi 2016), esketamine dose groups were compared to placebo using a combined test on the weighted test statistics for each period in the double-blind treatment phase. A dose-response analysis on primary efficacy endpoint was performed using data combined from both periods. The Multiple Comparison Procedure-Modelling (MCP-Mod) methodology was performed (Williams 2008; Bretz, “Combining multiple comparisons and modeling techniques in dose-response studies”, Biometrics, 2005, 61:738-748).

[7] = tested on: subjects with MDD at imminent risk for suicide; test: Beck Hopelessness Scale, BHS ([…]2001); format: in vivo, human; settings: 84 mg, ANCOVA LOCF, ITT
From the text: The BHS is a self-reported measure to assess one's level of negative expectations or pessimism regarding the future. It consists of 20 true-false items that examine the respondent's attitude over the past week by either endorsing a pessimistic statement or denying an optimistic statement. For every statement, each response is assigned a score of 0 or 1. The total BHS score is a sum of item responses and ranges from 0 to 20, with a higher score representing a higher level of hopelessness.

[8] = 14-day study, 54 mg/day intranasal
Protocol: This study includes a single dose and 14-day repeated dose neurotoxicity studies with intranasally administered esketamine in female rats 12 to 14 weeks of age. These studies were conducted to investigate whether single or repeated intranasal administrations of esketamine induced neurodegenerative changes in the rat brain. The study results were used to estimate an esketamine exposure-based safety margin compared with the maximum dose of esketamine administered intranasally to depressed adult patients in clinical trials.
Each group of main study animals consisted of 12 female rats. Four satellite animals were added to the esketamine HCl-dosed groups of main study animals for TK purposes. The plasma exposure to esketamine was measured in these animals on the first and the last day of dosing at various time points up to and including 24 hours after the first instillation.

[9] = Pharmacokinetics of intranasal esketamine in healthy subjects (Example 9); settings: across the 3 treatment groups
Protocol: This was an open-label, single-center study. The subjects were healthy Caucasian men and women, 20 to 55 years of age, inclusive. […] The solution consisted of:
Blood samples (4 mL each) for determination of esketamine and noresketamine plasma concentrations were collected into the appropriate collection tube (e.g., Vacutainer®) at timepoints 0.00, 0.12, 0.20, 0.37, 0.53, 0.67, 0.83, 1.00, 1.25, 1.50, 2.00, 3.00, 4.00, 6.00, 9.00, 12.00, 18.00, and 24.00 h. The total amount of blood to be drawn for clinical laboratory tests and PK evaluations is approximately 327 mL.
Plasma samples were analyzed for esketamine and noresketamine concentrations using the validated, specific and sensitive liquid chromatography coupled to tandem mass spectrometry (LC-MS/MS) achiral method of Example 8.
Serial PK blood samples (4 mL each) were collected for a 24-hour period from each subject (Periods 1, 2, and 3). […] Statistical Methods 1.6.4.1. Sample Size
The following key parameters of esketamine and noresketamine in plasma were calculated using noncompartmental methods and actual sampling times: Cmax, tmax, AUClast, AUC∞, t1/2,λ, and λz.

[10] = tested on: adult subjects with TRD; settings: double-blind phase
Protocol: The CADSS is an instrument for the measurement of present-state dissociative symptoms, and was administered to assess treatment-emergent dissociative symptoms. The CADSS consists of 23 subjective items, divided into 3 components: Depersonalization (Items 3 to 7, 20, and 23), derealization (Items 1, 2, 8 to 13, 16 to 19, and 21) and amnesia (Items 14, 15, and 22). Participant's responses were coded on a 5-point scale (0=not at all through to 4=extremely).
The Clinician Administered Dissociative States Scale (CADSS) was measured prior to the start of each dose, at 40 minutes, and 1.5 hours postdose.

## CN[C@]1(c2ccccc2Cl)CCCCC1=O [esketamine, (S)-2-(2-chlorophenyl)-2-(methylamino)cyclohexanone]
[1]
  patients who withdrew the nasal spray: 2 n
[2]; freeze (−20° C.)/thaw (room temperature)
  QC sample freeze/thaw stability: 3 freeze (−20° C.)/thaw (room temperature) cycles
[2]; human plasma QC sample at −20° C.
  QC sample long-term storage stability: 707 days at −20 °C
[2]; human plasma QC sample, room temperature
  QC sample bench-top stability: 18 hours at room temperature
[3]
  affinity for the glutamate NMDA receptor relative to R-ketamine: 3 to 4 fold
[4]
  perceptual changes/dissociative symptoms (CADSS) peaked around: 30 to 40 min
  perceptual changes/dissociative symptoms (CADSS) resolved by: ≤ 2 h
[5]
  blood pressure returning to normal range by: ≤ 2 hours post dose
[5]; across all dosing days
  maximum mean increase in diastolic BP: 11.9
  maximum mean increase in systolic BP: 16.7
[6]; 84 mg, Period 2 endpoint
  proportion of responders (≥50% improvement in MADRS): 50.0%
[6]; Period 1, baseline to day 8
  MADRS total score, LS mean difference vs placebo (all dose groups): −5.0 to −10.5
[6]; Period 1, 84 mg
  Remitters, %: (25.0) %
  Responders, %: (41.7) %
[6]; Period 2, day 8 to day 15
  MADRS total score, LS mean difference vs placebo (all dose groups): −3.1 to −6.9
[6]; Period 2, change at study period endpoint, 56 mg
  MADRS total score, LS mean change: −8.9
[6]; Period 2, 28 mg
  Remitters, %: (12.5) %
  Responders, %: (12.5) %
[6]; Period 2, 84 mg
  Remitters, %: (20.0) %
[7]; Day 1(DB): 4 H
  BHS total score change from baseline, Diff. of LS Means (minus Placebo): −1.5
[7]; End Point(DB)
  BHS total score change from baseline, Diff. of LS Means (minus Placebo): −2.3
[8]
  AUC-based safety margin compared with the maximum 84 mg clinical dose: ~11 fold
  Cmax-based safety margin compared with the maximum 84 mg clinical dose: approximately 17 fold
[9]
  variability of AUC (AUClast and AUC∞): 25.0% to 30.4
  variability of Cmax (percent coefficient of variation): 35.7% to 36.7
[10]
  dissociative and perceptual change symptoms (CADSS) resolved by: ≤ 1.5 hours postdose
